Laboratory results as given in PubChem BioAssay (NCI).
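96-well plates; 48 h exposure; 5 concentrations. Endpoints by linear interpolation between flanking doses. Not reached: highest tested concentration assigned. TGI: total growth inhibition.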

What was measured:
Experiment in all cases: growth of human tumour cells (NCI), 48 h
[1] = tested on: 786-0 renal
[2] = tested on: A549 NSCLC
[3] = tested on: ACHN renal
[4] = tested on: BT-549 breast
[5] = tested on: CAKI-1 renal
[6] = tested on: CCRF-CEM leukemia
[7] = tested on: COLO 205 colon
[8] = tested on: DU-145 prostate
[9] = tested on: EKVX NSCLC
[10] = tested on: HCC-2998 colon
[11] = tested on: HCT-116 colon
[12] = tested on: HCT-15 colon
[13] = tested on: HL-60(TB) leukemia
[14] = tested on: HOP-62 NSCLC
[15] = tested on: HOP-92 NSCLC
[16] = tested on: HS 578T breast
[17] = tested on: HT29 colon
[18] = tested on: IGROV1 ovarian
[19] = tested on: K-562 leukemia
[20] = tested on: KM12 colon
[21] = tested on: LOX IMVI melanoma
[22] = tested on: M14 melanoma
[23] = tested on: MALME-3M melanoma
[24] = tested on: MCF7 breast
[25] = tested on: MDA-MB-231 breast
[26] = tested on: MDA-MB-435
[27] = tested on: MDA-N
[28] = tested on: MOLT-4 leukemia
[29] = tested on: NCI-H226 lung
[30] = tested on: NCI-H23 lung
[31] = tested on: NCI-H460 lung
[32] = tested on: NCI-H522 lung
[33] = tested on: NCI/ADR-RES ovarian
[34] = tested on: OVCAR-3 ovarian
[35] = tested on: OVCAR-4 ovarian
[36] = tested on: OVCAR-5 ovarian
[37] = tested on: OVCAR-8 ovarian
[38] = tested on: PC-3 prostate
[39] = tested on: RPMI-8226 leukemia
[40] = tested on: RXF 393 renal
[41] = tested on: SF-268 CNS
[42] = tested on: SF-295 CNS
[43] = tested on: SF-539 CNS
[44] = tested on: SK-MEL-2 melanoma
[45] = tested on: SK-MEL-28 melanoma
[46] = tested on: SK-MEL-5 melanoma
[47] = tested on: SK-OV-3 ovarian
[48] = tested on: SN12C renal
[49] = tested on: SNB-19 CNS
[50] = tested on: SNB-75 CNS
[51] = tested on: SR leukemia
[52] = tested on: SW-620 colon
[53] = tested on: T-47D breast
[54] = tested on: TK-10 renal
[55] = tested on: U251 CNS
[56] = tested on: UACC-257 melanoma
[57] = tested on: UACC-62 melanoma
[58] = tested on: UO-31 renal
[59] = tested on: A498 renal

COc1cc(C[C@@]2(C)[C@@H]3CCC[C@H](CO)[C@@]3(C)CC[C@@H]2C)c(Cl)c(OC)c1
TGI [1]: 29.1 µM
TGI [2]: 29.6 µM
TGI [3]: 29.4 µM
TGI [4]: 33.8 µM
TGI [5]: 31.1 µM
TGI [6]: > 100 µM
TGI [7]: 30.2 µM
TGI [8]: 30 µM
TGI [9]: 27.5 µM
TGI [10]: 29.8 µM
TGI [11]: 24.7 µM
TGI [12]: 34.1 µM
TGI [13]: 47.3 µM
TGI [14]: 31.6 µM
TGI [15]: 30.5 µM
TGI [16]: 47.5 µM
TGI [17]: 26 µM
TGI [18]: 29.1 µM
TGI [19]: 53 µM
TGI [20]: 37.8 µM
TGI [21]: 32.9 µM
TGI [22]: 36.8 µM
TGI [23]: 32 µM
TGI [24]: 29.8 µM
TGI [25]: 32.3 µM
TGI [26]: 27.1 µM
TGI [27]: 30.1 µM
TGI [28]: 44.6 µM
TGI [29]: 32.5 µM
TGI [30]: 37.2 µM
TGI [31]: 36.3 µM
TGI [32]: 28.9 µM
TGI [33]: 31.3 µM
TGI [34]: 28.8 µM
TGI [35]: 33.3 µM
TGI [36]: 32.9 µM
TGI [37]: 31.7 µM
TGI [38]: 27.2 µM
TGI [39]: 76.2 µM
TGI [40]: 24.7 µM
TGI [41]: 30.8 µM
TGI [42]: 29.9 µM
TGI [43]: 29.4 µM
TGI [44]: 33.5 µM
TGI [45]: 60.9 µM
TGI [46]: 31.8 µM
TGI [47]: 31.3 µM
TGI [48]: 30 µM
TGI [49]: 33.8 µM
TGI [50]: 31.9 µM
TGI [51]: 48.5 µM
TGI [52]: 84.6 µM
TGI [53]: 22.9 µM
TGI [54]: 35.1 µM
TGI [55]: 29 µM
TGI [56]: 35.2 µM
TGI [57]: 28.9 µM
TGI [58]: 31.5 µM

Cc1ccc([N+](=O)[O-])cc1S(=O)(=O)Nc1ccc(C2=NN(S(=O)(=O)c3cc([N+](=O)[O-])ccc3C)C(c3cccs3)C2)cc1 (configuration not stated)
TGI [1]: > 100 µM
TGI [59]: 78.6 µM
TGI [2]: > 100 µM
TGI [3]: > 100 µM
TGI [4]: > 100 µM
TGI [5]: > 100 µM
TGI [7]: 25.3 µM
TGI [8]: > 100 µM
TGI [9]: > 100 µM
TGI [10]: 56.6 µM
TGI [11]: 77 µM
TGI [12]: > 100 µM
TGI [13]: > 100 µM
TGI [14]: > 100 µM
TGI [15]: > 100 µM
TGI [16]: 53.7 µM
TGI [17]: > 100 µM
TGI [18]: > 100 µM
TGI [19]: 88.3 µM
TGI [20]: > 100 µM
TGI [21]: > 100 µM
TGI [22]: > 100 µM
TGI [23]: > 100 µM
TGI [24]: 82.1 µM
TGI [25]: > 100 µM
TGI [26]: > 100 µM
TGI [27]: > 100 µM
TGI [28]: 89.3 µM
TGI [29]: > 100 µM
TGI [30]: 59.9 µM
TGI [31]: 94.6 µM
TGI [32]: 79.5 µM
TGI [33]: > 100 µM
TGI [34]: 52.6 µM
TGI [35]: > 100 µM
TGI [36]: > 100 µM
TGI [37]: > 100 µM
TGI [38]: > 100 µM
TGI [39]: 67.6 µM
TGI [40]: > 100 µM
TGI [41]: 75 µM
TGI [42]: 69.2 µM
TGI [44]: 69.2 µM
TGI [45]: > 100 µM
TGI [46]: > 100 µM
TGI [47]: > 100 µM
TGI [48]: > 100 µM
TGI [49]: > 100 µM
TGI [50]: > 100 µM
TGI [51]: 66.1 µM
TGI [52]: > 100 µM
TGI [53]: > 100 µM
TGI [54]: > 100 µM
TGI [55]: > 100 µM
TGI [56]: > 100 µM
TGI [57]: 47.5 µM
TGI [58]: > 100 µM

N=c1oc2ccc3ccccc3c2cc1-c1nc2ccccc2c(=O)[nH]1
TGI [1]: > 100 µM
TGI [2]: 73.3 µM
TGI [3]: 34 µM
TGI [4]: 68.5 µM
TGI [5]: > 100 µM
TGI [7]: > 100 µM
TGI [8]: > 100 µM
TGI [9]: > 100 µM
TGI [10]: > 100 µM
TGI [11]: > 100 µM
TGI [12]: > 100 µM
TGI [13]: > 100 µM
TGI [14]: 45.4 µM
TGI [15]: 41.9 µM
TGI [16]: 87.6 µM
TGI [17]: 39.5 µM
TGI [18]: 75.9 µM
TGI [19]: > 100 µM
TGI [20]: 43 µM
TGI [21]: > 100 µM
TGI [22]: > 100 µM
TGI [23]: > 100 µM
TGI [24]: 30 µM
TGI [25]: 73.4 µM
TGI [26]: > 100 µM
TGI [27]: > 100 µM
TGI [28]: > 100 µM
TGI [29]: > 100 µM
TGI [31]: > 100 µM
TGI [32]: 28.8 µM
TGI [33]: > 100 µM
TGI [35]: 67.2 µM
TGI [36]: > 100 µM
TGI [37]: > 100 µM
TGI [38]: > 100 µM
TGI [39]: > 100 µM
TGI [40]: 56.7 µM
TGI [41]: > 100 µM
TGI [42]: > 100 µM
TGI [43]: > 100 µM
TGI [44]: 31.8 µM
TGI [45]: > 100 µM
TGI [46]: > 100 µM
TGI [47]: > 100 µM
TGI [48]: > 100 µM
TGI [49]: > 100 µM
TGI [50]: 19.6 µM
TGI [51]: > 100 µM
TGI [52]: > 100 µM
TGI [53]: > 100 µM
TGI [54]: 90.4 µM
TGI [55]: > 100 µM
TGI [56]: > 100 µM
TGI [57]: 44.1 µM
TGI [58]: 32.8 µM

O=[N+]([O-])c1ccc2c(c1)nc1n2C(c2c(F)cccc2F)SC1 (configuration not stated)
TGI [1]: > 100 µM
TGI [2]: > 100 µM
TGI [3]: > 100 µM
TGI [4]: > 100 µM
TGI [5]: > 100 µM
TGI [6]: > 100 µM
TGI [7]: > 100 µM
TGI [8]: > 100 µM
TGI [9]: > 100 µM
TGI [10]: > 100 µM
TGI [11]: > 100 µM
TGI [12]: > 100 µM
TGI [13]: > 100 µM
TGI [14]: > 100 µM
TGI [15]: > 100 µM
TGI [16]: > 100 µM
TGI [17]: > 100 µM
TGI [18]: > 100 µM
TGI [19]: > 100 µM
TGI [20]: > 100 µM
TGI [21]: > 100 µM
TGI [22]: > 100 µM
TGI [23]: > 100 µM
TGI [24]: > 100 µM
TGI [25]: > 100 µM
TGI [26]: > 100 µM
TGI [27]: > 100 µM
TGI [28]: > 100 µM
TGI [30]: > 100 µM
TGI [31]: > 100 µM
TGI [32]: > 100 µM
TGI [33]: > 100 µM
TGI [34]: > 100 µM
TGI [35]: > 100 µM
TGI [36]: > 100 µM
TGI [37]: > 100 µM
TGI [38]: > 100 µM
TGI [39]: > 100 µM
TGI [40]: > 100 µM
TGI [41]: > 100 µM
TGI [42]: > 100 µM
TGI [43]: > 100 µM
TGI [44]: > 100 µM
TGI [45]: > 100 µM
TGI [46]: > 100 µM
TGI [47]: > 100 µM
TGI [48]: > 100 µM
TGI [49]: > 100 µM
TGI [50]: > 100 µM
TGI [51]: > 100 µM
TGI [52]: > 100 µM
TGI [53]: > 100 µM
TGI [54]: > 100 µM
TGI [55]: > 100 µM
TGI [56]: > 100 µM
TGI [57]: > 100 µM
TGI [58]: > 100 µM
